According to US20190375786A1, “STABLE PEPTIDES AND METHODS OF USE THEREOF” (Fred Hutchinson Cancer Research Center, priority 2016, published 2019):
Positions of bridges follow the written chain, without caps; N, C: chain ends. Residues, ends and D or L forms follow the SMILES beside them.

Assays:
[1] = molecular target: trypsin (Sus scrofa, UniProt P00761); assay: Trypsin digestion resistance of soluble peptide, RP-HPLC; assay type: in vitro ADME, porcine; set-up: purchased Sigma Aldrich 6567; settings: 500 U/ml trypsin, 30 minutes at 37.5° C.; HPLC peak vs untreated peptide
Sequence of trypsin (P00761 9-231): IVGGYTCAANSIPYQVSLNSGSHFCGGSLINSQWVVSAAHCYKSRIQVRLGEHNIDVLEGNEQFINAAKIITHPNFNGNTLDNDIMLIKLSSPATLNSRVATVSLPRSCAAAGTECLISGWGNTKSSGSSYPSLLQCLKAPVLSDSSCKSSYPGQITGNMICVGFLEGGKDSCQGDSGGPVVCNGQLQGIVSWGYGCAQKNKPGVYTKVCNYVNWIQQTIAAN
Method: (§1) Peptides were first suspended in 500 μl of ddH2O to a stock concentration of 2 mg/ml. Reactions were prepared by adding 12.5 μg of peptide from the stock solution to a 10 mM solution of DTT in PBS and allowed to incubate at room temperature for 30 minutes. Other reactions were prepared with 12.5 μg peptide and 500 U/ml trypsin in 25 mM Tris/75 mM NaCl buffer (pH 7.0) and incubated for 30 minutes at 37.5° C. These reactions were then quenched with 5 μg of soybean trypsin inhibitor (I) and, in some cases, 10 mM dithiothreitol (DTT). Reversed phase HPLC (RP-HPLC) was run on samples using an Agilent 1260 HPLC equipped with a C-18 Poroshell 120B column. Sample were analyzed by a gradient method with a mobile phase of Solvent A (water with 0.1% TFA) and Solvent B (acetonitrile with 0.1% TFA). Solvent B was ramped up from 5%-45% of the mobile phase over a period of 10 minutes. For testing pepsin digestion resistance, reactions were prepared with 12.5 μg peptide with or without 500 U/ml pepsin in simulated gastric fluid (SGF; pH 1.05; […] sodium chloride in 0.7% (v/v) hydrochloric acid) and were incubated for 30 minutes at 37.5° C. For testing temperature resistance, peptides were incubated at 70° C., 75° C., or 100° C. for one hour in 0.5 mM PBS, pelleted, and then the supernatant was analyzed by HPLC.
(§2) This example illustrates peptide stability in biological conditions including in the presence of reducing agents, proteases, oxidative conditions, acidic conditions, and simulated gastric fluids. […] Various peptides were suspended in 500 μl of ddH2O at a stock concentration of 2 mg/ml. This was then diluted in accord with the reaction conditions to prevent adverse buffering effects. Reactions were prepared with 12.5 μg peptide dissolved in solution and, in some samples, additionally suspended in a 10 mM solution of DTT, simulated gastric fluid (pH 1.05; […] sodium chloride in 0.7% (v/v) hydrochloric acid), 500 U pepsin (5000 U/ml pepsin), 50 U trypsin (500 U/ml trypsin) with 1 mg/ml inhibitor in PBS, or a combination of any of these conditions. All protease reactions were incubated for 30 min at room temperature and then quenched. Pepsin reactions were quenched by adding Tris base to a final concentration of 0.075 M. Trypsin reactions were quenched by adding excess soybean trypsin inhibitor. RP-HPLC was then run on samples using an Agilent 1260 HPLC equipped with a C-18 Poroshell 120B column. Sample were analyzed by a gradient method with a mobile phase of Solvent A (water with 0.1% TFA) and Solvent B (acetonitrile with 0.1% TFA). Solvent B was ramped up from 5%-45% of the mobile phase over a period of 10 minutes.
Soluble peptides were exposed to 500 U/mL porcine trypsin and analyzed by HPLC. Protease resistance was also assessed by using SDPR-displaying peptides. The SDPR vector is similar to the a surface display GFP FasL(SDGF) vector, but contains a C-terminal 6×His tag (SEQ ID NO: 180) and all basic or aromatic amino acid residues on the stalk removed. Protease resistance is then tested by incubation of cells displaying peptides with trypsin or chymotrypsin, followed by incubation in 10 mM DTT, and staining with an anti-6×His fluorophore-labeled antibody (“6×His” disclosed as SEQ ID NO: 180). If peptides are uncleaved, they retain the His tag and are stained with by the antibody. A control protease-sensitive knottin peptide (SK) was used as a positive control. Cells displaying peptides were treated with up to 40 μg/ml trypsin or chymotrypsin.
FIG. 21 illustrates high performance liquid chromatograph (HPLC) traces of peptides after trypsin digestion. […] The assay was carried out by reconstituting 1 mg porcine trypsin (Sigma Aldrich 6567) in 1 mL of 1 mM HCl. Trypsin was provided at a concentration of 10,000 u/mL and thus, 5 μl of stock solution was equivalent to using 50 U of trypsin in each reaction. Soybean trypsin inhibitor (SA T9128) was prepared at 1 mg/mL of in H2O. […]

[2] = molecular target: pepsin (Sus scrofa, UniProt P00791); assay: Pepsin digestion resistance in simulated gastric fluid, RP-HPLC; assay type: in vitro ADME, porcine; set-up: purchased Sigma Aldrich P7012; settings: 500 U/ml pepsin in SGF pH 1.05, 30 minutes at 37.5° C.; HPLC peak vs untreated peptide
Sequence of pepsin (P00791 60-385): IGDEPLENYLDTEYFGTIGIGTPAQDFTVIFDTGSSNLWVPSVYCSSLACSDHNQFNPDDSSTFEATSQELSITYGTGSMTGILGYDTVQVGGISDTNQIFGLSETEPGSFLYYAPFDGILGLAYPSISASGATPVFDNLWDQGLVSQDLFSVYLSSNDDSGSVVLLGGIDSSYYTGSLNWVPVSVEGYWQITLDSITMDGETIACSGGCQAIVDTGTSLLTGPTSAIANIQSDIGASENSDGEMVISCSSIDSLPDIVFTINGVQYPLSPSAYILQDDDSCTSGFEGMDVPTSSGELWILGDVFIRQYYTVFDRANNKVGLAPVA
Method: Peptides were first suspended in 500 ul of ddH2O to a stock concentration of 2 mg/ml. Reactions were prepared by adding 12.5 ug of peptide from the stock solution to a 10 mM solution of DTT in PBS and allowed to incubate at room temperature for 30 minutes. Other reactions were prepared with 12.5 μg peptide with or without 500 U/ml pepsin in simulated gastric fluid (SGF; pH 1.05; […] sodium chloride in 0.7% (v/v) hydrochloric acid) and were incubated for 30 minutes at 37.5° C. Some reactions were quenched with a final concentration of 100 mM Tris base and 10 mM dithiothreitol (DTT). Some reactions were performed in all of the above components, including simulated gastric fluid, pepsin, Tris, and DTT (referred to as SPTD). Reversed phase HPLC (RP-HPLC) was run on samples using an Agilent 1260 HPLC equipped with a C-18 Poroshell 120B column. Sample were analyzed by a gradient method with a mobile phase of Solvent A (water with 0.1% TFA) and Solvent B (acetonitrile with 0.1% TFA). Solvent B was ramped up from 5%-45% of the mobile phase over a period of 10 minutes. Peptides were detected at an absorbance of 214 nm and 280 nm.
as §1, §2
FIG. 20 illustrates high performance liquid chromatograph (HPLC) traces of peptides after pepsin digestion. […]

For `CC[C@H](C)[C@H](NC(=O)CNC(=O)[C@@H](NC(=O)[C@H](CO)NC(=O)[C@@H](NC(=O)[C@H](CO)NC(=O)CN)[C@@H](C)CC)[C@@H](C)CC)C(=O)N[C@@H](CCCCN)C(=O)N[C@H]1CSSC[C@@H]2NC(=O)[C@H](Cc3ccc(O)cc3)NC(=O)CNC(=O)[C@H]([C@@H](C)O)NC(=O)[C@H](Cc3ccccc3)NC(=O)[C@H](Cc3ccc(O)cc3)NC(=O)[C@H](CCCCN)NC(=O)[C@H](CCCNC(=N)N)NC(=O)[C@H]([C@@H](C)CC)NC(=O)[C@H](CCCNC(=N)N)NC(=O)[C@@H]3CSSC[C@@H](C(=O)N[C@@H](CO)C(=O)NCC(=O)O)NC(=O)[C@H](Cc4c[nH]cn4)NC(=O)[C@H](CSSC[C@H](NC(=O)[C@H](CC(C)C)NC(=O)[C@H](CC(=O)O)NC(=O)[C@H]([C@@H](C)CC)NC(=O)[C@H](CO)NC(=O)[C@@H]4CCCN4C(=O)[C@H](CO)NC1=O)C(=O)N[C@@H](CCC(=O)O)C(=O)NCC(=O)N[C@@H](CCC(N)=O)C(=O)N3)NC(=O)[C@H]([C@@H](C)O)NC(=O)[C@H](CC(=O)O)NC(=O)CNC(=O)[C@H](CO)NC2=O` [compound 3] (H-GSISIGIKCSPSIDLCEGQCRIRKYFTGYCSGDTCHCSG-OH; disulfide 9-30, 16-35, 20-37), which “Resistance to Trypsin (500 U/ml)” value [1] is on record?
The value was “Low (A peptide classified as low indicates that the majority (over 75%) of the HPLC peak of the treated peptide disappeared as compared to the HPLC peak of the untreated peptide)”.

What about the “Resistance to Pepsin (500 U/ml)” value [2] of the same molecule?
The value was “Moderate (A peptide classified as medium indicates that about half (between 25% and 75%) of the HPLC peak of the treated peptide disappeared as compared to the HPLC peak of the untreated peptide)”.

What does the source list for `CC[C@H](C)[C@@H]1NC(=O)[C@@H]2CSSC[C@H](NC(=O)[C@H](C)NC(=O)CNC(=O)[C@H](CCC(=O)O)NC(=O)[C@@H](NC(=O)[C@H](CCCCN)NC(=O)[C@H](Cc3ccccc3)NC(=O)[C@H](CC(N)=O)NC(=O)[C@H](CO)NC(=O)CN)C(C)C)C(=O)N[C@@H](CO)C(=O)N[C@@H](CCCCN)C(=O)N3CCC[C@H]3C(=O)N[C@H]3CSSC[C@H](NC(=O)[C@H](CCCNC(=N)N)NC(=O)CNC(=O)[C@H](CC(N)=O)NC1=O)C(=O)N[C@@H](Cc1c[nH]cn1)C(=O)N[C@H](C(=O)N[C@@H](Cc1ccc(O)cc1)C(=O)N[C@@H](Cc1ccc(O)cc1)C(=O)O)CSSC[C@H](NC(=O)[C@H](Cc1ccc(O)cc1)NC(=O)[C@H](CCCCN)NC(=O)[C@H](CCCNC(=N)N)NC3=O)C(=O)N[C@@H]([C@@H](C)CC)C(=O)N[C@@H](CC(=O)O)C(=O)N[C@@H](CCCCN)C(=O)NCC(=O)N[C@@H](C)C(=O)N[C@@H](CCCNC(=N)N)C(=O)N[C@@H](CC(N)=O)C(=O)NCC(=O)N[C@@H](CCCCN)C(=O)N2` [compound 5] (H-GSNFKVEGACSKPCRKYCIDKGARNGKCINGRCHCYY-OH; disulfide 10-28, 14-33, 18-35)?
Resistance to Trypsin (500 U/ml) [1]: Moderate (A peptide classified as medium indicates that about half (between 25% and 75%) of the HPLC peak of the treated peptide disappeared as compared to the HPLC peak of the untreated peptide); Resistance to Pepsin (500 U/ml) [2]: Moderate (A peptide classified as medium indicates that about half (between 25% and 75%) of the HPLC peak of the treated peptide disappeared as compared to the HPLC peak of the untreated peptide)

Which “Resistance to Trypsin (500 U/ml)” value [1] does the source give for `CC[C@H](C)[C@@H]1NC(=O)[C@H](CCCNC(=N)N)NC(=O)[C@H]([C@@H](C)CC)NC(=O)[C@@H]2CSSC[C@@H](C(=O)N[C@@H](Cc3ccc(O)cc3)C(=O)N3CCC[C@H]3C(=O)O)NC(=O)[C@H](Cc3ccc(O)cc3)NC(=O)[C@@H]3CSSC[C@H](NC(=O)[C@H](CCC(=O)O)NC(=O)[C@H](CO)NC(=O)[C@H](CO)NC(=O)[C@H](CC(N)=O)NC(=O)[C@H](CC(N)=O)NC(=O)[C@@H](NC(=O)[C@H](CCCNC(=N)N)NC(=O)[C@H](CC(N)=O)NC(=O)[C@H](CO)NC(=O)[C@H](CC(C)C)NC(=O)[C@@H](NC(=O)[C@H](CCCCN)NC(=O)[C@H](CCC(N)=O)NC(=O)[C@H](CO)NC(=O)CN)[C@@H](C)CC)CSSC[C@H](NC(=O)[C@H](CCCCN)NC(=O)[C@H](C)NC(=O)[C@H](C)NC(=O)[C@H](CCCNC(=N)N)NC(=O)[C@H]([C@@H](C)O)NC(=O)CNC(=O)[C@H](Cc4ccccc4)NC1=O)C(=O)N[C@@H]([C@@H](C)CC)C(=O)N[C@@H](CC(N)=O)C(=O)N[C@@H](CCCNC(=N)N)C(=O)N[C@@H](CCCCN)C(=O)N3)C(=O)N[C@@H]([C@@H](C)CC)C(=O)N1CCC[C@H]1C(=O)N[C@@H](Cc1c[nH]cn1)C(=O)N2` [compound 6] (H-GSQKILSNRCNNSSECIPHCIRIFGTRAAKCINRKCYCYP-OH; disulfide 10-31, 16-36, 20-38) here?
Its value is “High (A peptide classified as high indicates that the majority (at least 75%) of the HPLC peak of the treated peptide is still present as compared to the HPLC peak of the untreated peptide)”.

What about the “Resistance to Pepsin (500 U/ml)” value [2] of the same molecule?
The value was “High (A peptide classified as high indicates that the majority (at least 75%) of the HPLC peak of the treated peptide is still present as compared to the HPLC peak of the untreated peptide)”.

Which results are given for `CC[C@H](C)[C@@H]1NC(=O)[C@@H]2CSSC[C@H](NC(=O)[C@@H](NC(=O)[C@H](C)NC(=O)[C@H](CO)NC(=O)CN)C(C)C)C(=O)N[C@@H](CC(N)=O)C(=O)N[C@@H](CC(C)C)C(=O)N[C@@H](CCCCN)C(=O)N[C@@H](CCCNC(=N)N)C(=O)N[C@H]3CSSC[C@H](NC(=O)[C@H](CCCCN)NC(=O)[C@H](CC(=O)O)NC(=O)CNC1=O)C(=O)N[C@@H](CCC(=O)O)C(=O)N[C@H](C(=O)N[C@H](C(=O)N[C@@H](CCCCN)C(=O)N[C@@H](Cc1c[nH]cn1)C(=O)NCC(=O)O)C(C)C)CSSC[C@H](NC(=O)[C@H](CO)NC(=O)[C@H](CC(C)C)NC(=O)[C@H](CCC(N)=O)NC3=O)C(=O)N[C@@H](CCCNC(=N)N)C(=O)N[C@@H](CO)C(=O)N[C@@H](CC(C)C)C(=O)NCC(=O)N[C@@H](CC(C)C)C(=O)N[C@@H](CC(C)C)C(=O)NCC(=O)N[C@@H](CCCCN)C(=O)N2` [compound 8] (H-GSAVCNLKRCQLSCRSLGLLGKCIGDKCECVKHG-OH; disulfide 5-23, 10-28, 14-30)?
Resistance to Trypsin (500 U/ml) [1]: Low (A peptide classified as low indicates that the majority (over 75%) of the HPLC peak of the treated peptide disappeared as compared to the HPLC peak of the untreated peptide); Resistance to Pepsin (500 U/ml) [2]: High (A peptide classified as high indicates that the majority (at least 75%) of the HPLC peak of the treated peptide is still present as compared to the HPLC peak of the untreated peptide)
